Measurements reported in patent publication US9517993B2, “Antagonists of the toll-like receptor 1/2 complex” (THE REGENTS OF THE UNIVERSITY OF COLORADO, a body corporate, priority 2012, dated 2016).

Experiments:
[1] = biological target: T1, TLR3 (Mus musculus, UniProt Q99MB1); assay: RAW 264.7 nitric oxide TLR selectivity assay (Poly (I:C)); assay type: cell-based; conditions: 15 μg/mL Poly (I:C)
T1 construct: RAW 264.7 Cells Nitric Oxide TLR Selectivity Assay; endogenous in cells; host or cells: RAW 264.7
T1 sequence (Q99MB1 26-905): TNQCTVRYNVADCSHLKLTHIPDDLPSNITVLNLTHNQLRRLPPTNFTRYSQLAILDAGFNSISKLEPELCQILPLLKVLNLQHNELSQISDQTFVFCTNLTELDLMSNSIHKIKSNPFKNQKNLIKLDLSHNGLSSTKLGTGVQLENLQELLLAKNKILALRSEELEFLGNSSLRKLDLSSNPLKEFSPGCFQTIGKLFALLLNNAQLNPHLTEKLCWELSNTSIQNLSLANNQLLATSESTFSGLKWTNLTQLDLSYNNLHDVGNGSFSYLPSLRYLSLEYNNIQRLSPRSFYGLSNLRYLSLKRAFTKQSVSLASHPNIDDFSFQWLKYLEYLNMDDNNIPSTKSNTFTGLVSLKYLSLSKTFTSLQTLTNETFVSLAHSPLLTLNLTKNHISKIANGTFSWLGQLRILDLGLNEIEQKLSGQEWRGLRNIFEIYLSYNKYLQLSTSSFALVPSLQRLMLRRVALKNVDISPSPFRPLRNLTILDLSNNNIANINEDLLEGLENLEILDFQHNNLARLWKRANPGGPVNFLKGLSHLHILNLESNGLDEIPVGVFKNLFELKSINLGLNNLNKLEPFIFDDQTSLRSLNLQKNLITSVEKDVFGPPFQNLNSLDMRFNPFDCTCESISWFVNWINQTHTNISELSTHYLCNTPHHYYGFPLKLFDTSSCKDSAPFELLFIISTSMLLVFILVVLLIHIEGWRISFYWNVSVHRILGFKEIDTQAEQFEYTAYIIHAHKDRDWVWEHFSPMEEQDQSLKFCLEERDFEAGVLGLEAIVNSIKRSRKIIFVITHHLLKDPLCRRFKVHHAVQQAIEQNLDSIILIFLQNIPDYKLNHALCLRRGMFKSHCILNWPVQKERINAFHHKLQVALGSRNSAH
Description: (§1) RAW 264.7 (Mouse leukaemic monocyte macrophage cell line) cells were grown in RPMI 1640 medium, supplemented with 10% FBS, penicillin (100 U/mL) and streptomycin ([…]). RAW cells were then planted in 96-well plates at 80,000 cells per well and grown for 24 h in the media descried previously at 37° C. in a 5% CO2 humidified incubator. After 24 h, non-adherent cells and media were removed and replaced with fresh unsupplemented RPMI 1640 medium. The adherent macrophages were treated with Pam3CSK4 (CAS No. 112208-00-1; a synthetic triacylated lipopeptide (LP) that mimics the acylated amino terminus of bacterial LPs) (200 ng/mL) (Invivogen, USA), an agonist of TLR1/2, and then added different concentrates of potential inhibitor. Two rows were only treated with Pam3CSK4 as control. […] The reaction was quenched by addition of 5 μL of a 3 M aqueous NaOH solution and the plate was read on Beckman Coulter DTX880 reader (Beckman Coulter, Calif., USA) with excitation at 365 nm and emission at 450 nm. The nitrite (a stable metabolite of nitric oxide) concentration was determined from a nitrite standard curve. The inhibition rate (%) of NO release was determined using the following formula: Inhibition (%)=[Pam3CSK4(OD450) […]]/[Pam3CSK4 (OD450)−Control (OD450)]×100. The IC50 values for both inhibition and cytotoxicity were determined graphically using software Origin v7.5. […]

[2] = biological target: T2, TLR4 (Mus musculus, UniProt Q9JHF9+Q9QUK6); assay: RAW 264.7 nitric oxide TLR selectivity assay (LPS); assay type: cell-based; conditions: 10 ng/mL LPS
T2 construct: RAW 264.7 Cells Nitric Oxide TLR Selectivity Assay; endogenous in cells; host or cells: RAW 264.7
T2 sequence (Q9QUK6 26-835): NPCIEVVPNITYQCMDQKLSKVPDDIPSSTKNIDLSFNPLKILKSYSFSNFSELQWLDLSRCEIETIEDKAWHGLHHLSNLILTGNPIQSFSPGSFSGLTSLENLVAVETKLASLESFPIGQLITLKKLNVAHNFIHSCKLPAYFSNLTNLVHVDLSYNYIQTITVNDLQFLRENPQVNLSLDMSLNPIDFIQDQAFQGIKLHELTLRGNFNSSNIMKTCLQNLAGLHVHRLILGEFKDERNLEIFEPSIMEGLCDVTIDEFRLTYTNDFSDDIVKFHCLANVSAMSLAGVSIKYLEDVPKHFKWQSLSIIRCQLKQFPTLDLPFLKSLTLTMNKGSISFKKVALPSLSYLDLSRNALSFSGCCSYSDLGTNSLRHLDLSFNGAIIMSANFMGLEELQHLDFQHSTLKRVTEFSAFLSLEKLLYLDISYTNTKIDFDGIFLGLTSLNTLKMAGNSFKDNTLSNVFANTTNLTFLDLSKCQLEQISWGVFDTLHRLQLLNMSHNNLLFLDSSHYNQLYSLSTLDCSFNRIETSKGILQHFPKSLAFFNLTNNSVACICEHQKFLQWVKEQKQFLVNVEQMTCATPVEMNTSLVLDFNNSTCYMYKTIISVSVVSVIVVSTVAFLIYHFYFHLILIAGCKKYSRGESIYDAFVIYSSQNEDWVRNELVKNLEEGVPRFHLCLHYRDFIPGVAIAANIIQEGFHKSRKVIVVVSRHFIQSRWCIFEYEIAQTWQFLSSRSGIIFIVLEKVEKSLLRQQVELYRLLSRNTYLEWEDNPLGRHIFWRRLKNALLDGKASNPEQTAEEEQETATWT
T2 sequence (Q9JHF9 19-160): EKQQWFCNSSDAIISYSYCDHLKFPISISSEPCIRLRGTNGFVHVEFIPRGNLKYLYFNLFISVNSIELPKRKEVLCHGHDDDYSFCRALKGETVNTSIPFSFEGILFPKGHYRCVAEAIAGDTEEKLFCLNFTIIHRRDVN
Description: as §1

Row | SMILES | inhibition of TLR3 signaling ([1]; 0.5 μM compound) | inhibition of TLR4 signaling ([2]; 0.5 μM compound) | inhibition of TLR3 signaling ([1]; 3 μM compound) | inhibition of TLR4 signaling ([2]; 3 μM compound)
1 | CCCCCCOC(=O)c1cc(O)c(=O)c2c(O)c(O)c(OC)cc2c1 [compound 17, Hexyl 3,4,6-trihydroxy-2-methoxy-5-oxo-5H-benzo[7]annulene-8-carboxylate] | without affecting other TLRs | without affecting other TLRs |  | 
2 | O=c1c(O)cccc2cc(O)c(O)c(O)c12 [NCI35676, purpurogallin, reference compound] |  |  | no other homologous TLRs | no other homologous TLRs
